Where a SMILES comes first, the peptide text is derived from it. [ ]: non-standard residue; d: D form. Ala(azulen-1-yl) = N[C@@H](Cc1ccc2cccccc1-2)C(=O)O; Trp(4-CN) = N#Cc1cccc2[nH]cc(C[C@H](N)C(=O)O)c12
System: U2OS cells
Assay: Live cell fluorescence microscopy of peptide uptake
Settings: 37 °C, excitation 340 nm
[1] = 50 µM peptide in OPTI-MEM, 20 min, 0.5% DMSO, washed once, ET460/50m (4CNW) or ET395/25x (AzAla) emission filter

Experimental: To evaluate their suitability for tracking peptide penetration into cells, 4CNW/AzAla were appended onto the N‐terminus of a well‐characterized cell penetrating peptide, TAT‐NLS P3 (tryptophan was included as a negative control). Human bone osteosarcoma epithelial cells (U2OS) were incubated with peptides 4CNW‐P3, AzAla‐P3, W‐P3 for 20 minutes at a concentration of 50 μM in OPTI‐MEM. A moderate concentration (50 μM) of peptide was required for detection due to current limitations in the sensitivity of our microscopy system. Cells were then washed once with OPTI‐MEM and imaged on a Nikon Ti Eclipse inverted microscope with fluorescence excitation at 340 nm. An ET460/50 m single bandpass emission filter was used to image 4CNW‐P3 and a ET395/25x single bandpass emission filter was used to image AzAla‐P3.
Figure 3 Uptake of 4CNW/AzAla labelled peptides by living cells. a Live cell fluorescence microscopy images of U2OS cells after 20 min incubation with linear/cyclic peptides (50 μM). Fluorescence of peptides is shown in blue (4CNW) or cyan (AzAla). Scale bar: 20 μm. Images were obtained by using fluorescence excitation at 340 nm with a ET460/50 m (4CNW) or ET395/25x (AzAla) single bandpass emission filter and a Plan Fluor 60x/A1.2 WI. b Live cell fluorescence microscopy images of U2OS cells after 24 h incubation with 4CNW‐P4 peptide (50 μM). Fluorescence of peptides is shown in blue (4CNW). Scale bar: 20 μm. Images were obtained by using fluorescence excitation at 340 nm with a ET460/50 m (4CNW) single bandpass emission filter and a Plan Fluor 40X/1.3NA objective. c Flow cytometry of U2OS cells incubated with DMSO, 4CNW‐P3 or 4CNW‐P4 at the indicated times. Fluorescence of a single cell suspension was acquired with a 355 nm laser, 450‐50 detector and FACS‐Diva software. Numbers indicated in graphs show percentage of positive cells.
To assess if 4CNW‐P4 was penetrating cells, U2OS cells were incubated with 50 μM peptide for 24 h. Cells were then imaged by fluorescence microscopy using the same conditions as described above.

| SMILES | intracellular fluorescence (cell uptake) [1] | intracellular fluorescence (cell uptake) (50 µM peptide, 24 h, ET460/50m emission filter) |
| --- | --- | --- |
| CC(=O)N[C@@H](Cc1ccc2cccccc1-2)C(=O)NCC(=O)N[C@@H](CCCNC(=N)N)C(=O)N[C@@H](CCCCN)C(=O)N[C@@H](CCCCN)C(=O)N[C@@H](CCCNC(=N)N)C(=O)N[C@@H](CCCNC(=N)N)C(=O)N[C@@H](CCC(N)=O)C(=O)N[C@@H](CCCNC(=N)N)C(=O)N[C@@H](CCCNC(=N)N)C(=O)N[C@@H](CCCNC(=N)N)C(=O)N1CCC[C@H]1C(=O)N[C@@H](CCC(N)=O)C(=O)N1CCC[C@H]1C(=O)N[C@@H](CCCCN)C(=O)N[C@@H](CCCCN)C(=O)N[C@@H](CCCCN)C(=O)N[C@@H](CCCNC(=N)N)C(=O)N[C@@H](CCCCN)C(=O)N[C@H](C(N)=O)C(C)C [AzAla‐P3] (Ac-[Ala(azulen-1-yl)]GRKKRRQRRRPQPKKKRKV-NH2) | considerable intracellular fluorescence | – |
| CC[C@H](C)[C@@H]1NC(=O)[C@H](Cc2c[nH]c3ccccc23)NC(=O)[C@H](Cc2c[nH]c3cccc(C#N)c23)NC(=O)[C@H](CC(=O)O)NC(=O)CNC(=O)[C@H](CO)NC(=O)[C@H](CC(=O)O)NC(=O)[C@H](CC(=O)O)NC(=O)[C@H](CC(C)C)NC(=O)[C@H](Cc2ccc(O)cc2)NC(=O)[C@H](CC(C)C)NC(=O)[C@@H](Cc2c[nH]c3ccccc23)NC(=O)CSC[C@@H](C(=O)NCC(N)=O)NC1=O [4CNW‐P4] | – | appreciable intracellular fluorescence |
| CC(=O)N[C@@H](Cc1c[nH]c2cccc(C#N)c12)C(=O)NCC(=O)N[C@@H](CCCNC(=N)N)C(=O)N[C@@H](CCCCN)C(=O)N[C@@H](CCCCN)C(=O)N[C@@H](CCCNC(=N)N)C(=O)N[C@@H](CCCNC(=N)N)C(=O)N[C@@H](CCC(N)=O)C(=O)N[C@@H](CCCNC(=N)N)C(=O)N[C@@H](CCCNC(=N)N)C(=O)N[C@@H](CCCNC(=N)N)C(=O)N1CCC[C@H]1C(=O)N[C@@H](CCC(N)=O)C(=O)N1CCC[C@H]1C(=O)N[C@@H](CCCCN)C(=O)N[C@@H](CCCCN)C(=O)N[C@@H](CCCCN)C(=O)N[C@@H](CCCNC(=N)N)C(=O)N[C@@H](CCCCN)C(=O)N[C@H](C(N)=O)C(C)C [4CNW‐P3] (Ac-[Trp(4-CN)]GRKKRRQRRRPQPKKKRKV-NH2) | considerable intracellular fluorescence | – |
